Laboratory results from ChEMBL document CHEMBL5050827, “ATF6 inhibitors and uses thereof” (2020).

Tests used:
[1] = Inhibition of ATF6 activity in human U2OS cells in presence of ER stress inducer thapsigargin (Tg) measured by TRE-luciferase reporter assay; format: cell-based
U2OS = experiment: Inhibition of ATF6 activity in human U2OS cells at 1 uM in presence of ER stress inducer thapsigargin (Tg) measured by TRE-luciferase reporter assay relative to control; format: cell-based
[2] = Clearance in Balb/C mouse plasma at 10 mg/kg, po by LC-MS analysis; format: ADME, organism-based
[3] = AUC (last) in Balb/C mouse plasma at 10 mg/kg, po by LC-MS analysis; format: ADME, organism-based; design: time 0 - last, route oral, dose 10 mg/kg
[4] = AUC (infinity) in Balb/C mouse plasma at 10 mg/kg, po by LC-MS analysis; format: ADME, organism-based; design: route oral, time infinity, dose 10 mg/kg
[5] = Half-life in Balb/C mouse plasma at 10 mg/kg, po by LC-MS analysis; format: ADME, organism-based

| IC50 [1] | Structure (SMILES) | inhibition (U2OS) | further results |
| --- | --- | --- | --- |
| in the range around 1000 nM | C[C@@H](c1ccc(C(F)(F)F)cc1C(F)(F)F)n1cc(NC(=O)c2nnc(-c3ccccn3)s2)cn1 | < 25% | – |
| – | Cc1cccc(-c2cc(C(=O)Nc3cnn(Cc4ccc(C(F)(F)F)cc4C(F)(F)F)c3)no2)n1 | 25% | – |
| in the range around 1000 nM | Cc1c(NC(=O)c2cc(-c3ccccn3)on2)cnn1Cc1ccc(C(F)(F)F)cc1C(F)(F)F | 25% | – |
| – | C[C@@H](c1ccc(C(F)(F)F)cc1C(F)(F)F)n1cc(NC(=O)c2cc(-c3ccccn3)on2)cn1 | > 50% | CL/F [2]: 5.17 mL/min/kg |
| > 10000 nM | C[C@@H](c1ccc(C(F)(F)F)cc1C(F)(F)F)n1cc(NC(=O)c2coc(-c3ccccn3)n2)cn1 | < 25% | – |
| in the range around 1000 nM | CN(C(=O)c1cc(-c2ccccn2)on1)c1cnn(Cc2ccc(C(F)(F)F)cc2C(F)(F)F)c1 | 25% | – |
| > 10000 nM | O=C(Nc1cnn(Cc2ccc(C(F)(F)F)cc2)c1)c1cc(-c2ccco2)on1 | < 25% | – |
| – | Cc1cccc(-c2cc(C(=O)Nc3cnn([C@H](C)c4ccc(C(F)(F)F)cc4C(F)(F)F)c3)no2)n1 | 25% | – |
| – | O=C(Nc1cnn(Cc2ccc(C(F)(F)F)cc2C(F)(F)F)c1)c1cc(-c2cccs2)on1 | 25% | – |
| in the range around 1000 nM | CC(c1ccc(C(F)(F)F)cc1C(F)(F)F)n1cc(NC(=O)c2cc(-c3cccs3)on2)cn1 (stereo not given) | – | – |
| in the range around 1000 nM | Cc1c(NC(=O)c2cc(-c3ccccn3)on2)cnn1[C@H](C)c1ccc(C(F)(F)F)cc1C(F)(F)F | 25% | – |
| – | C[C@H](c1ccc(C(F)(F)F)cc1C(F)(F)F)n1cc(NC(=O)c2cc(-c3ccccn3)no2)cn1 | – | CL/F [2]: 3.68 mL/min/kg |
| > 10000 nM | O=C(Nc1cnn(C2CCc3ccccc32)c1)c1nnc(-c2ccco2)o1 (stereo not given) | < 25% | – |
| – | C[C@H](c1ccc(C(F)(F)F)cc1C(F)(F)F)n1cc(NC(=O)c2cc(-c3ccccn3)on2)cn1 | < 25% | – |
| in the range around 1000 nM | C[C@H](c1ccc(F)cc1C(F)(F)F)n1cc(NC(=O)c2cc(-c3ccccn3)on2)cn1 | 25% | – |
| – | C[C@H](c1ccc(C(F)(F)F)cc1C(F)(F)F)n1cc(NC(=O)c2cn(-c3ccccn3)nn2)cn1 | 25% | – |
| < 1000 nM | O=C(Nc1cnn(Cc2ccc(C(F)(F)F)cc2C(F)(F)F)c1)c1cc(-c2ccco2)on1 | > 50% | AUC(0-t) [3]: 39.1 ng·h/mL; AUC(0-inf) [4]: 43.3 ng·h/mL; CL/F [2]: 3850 mL/min/kg; half-life [5]: 2.49 h |

| IC50 [1] | Structure (SMILES) | inhibition (U2OS) | further results |
| --- | --- | --- | --- |
| in the range around 1000 nM | C[C@H](c1ccc(C(F)(F)F)cc1C(F)(F)F)n1cc(NC(=O)c2cnc(-c3ccccn3)s2)cn1 | 25% | – |
| in the range around 1000 nM | CC(c1ccc(C(F)(F)F)cc1C(F)(F)F)n1cc(NC(=O)c2cnc(-c3ccccn3)s2)cn1 (stereo not given) | – | – |
| – | O=C(Nc1cnn(Cc2ccc(C(F)(F)F)cc2C(F)(F)F)c1)c1cc(-c2ccccn2)on1 | – | CL/F [2]: 16.2 mL/min/kg |
| in the range around 1000 nM | Cc1ccc(-c2cc(C(=O)Nc3cnn(Cc4ccc(C(F)(F)F)cc4C(F)(F)F)c3)no2)o1 | – | – |
| > 10000 nM | C[C@@H](c1ccc(C(F)(F)F)cc1C(F)(F)F)n1cc(NC(=O)c2cnc(-c3ccccn3)o2)cn1 | < 25% | – |
| – | C[C@H](c1ccc(C(F)(F)F)cc1C(F)(F)F)n1cc(NC(=O)c2nnc(-c3ccncn3)s2)cn1 | 25% | – |
| > 10000 nM | O=C(Nc1cnn(Cc2ccccc2)c1)c1cc(-c2ccco2)on1 | < 25% | – |
| in the range around 1000 nM | O=C(Nc1cnn(Cc2ccc(C(F)(F)F)cc2C(F)(F)F)c1)c1cnc(-c2ccccn2)s1 | – | – |
| – | CC(c1ccc(C(F)(F)F)cc1C(F)(F)F)n1cc(NC(=O)c2cc(-c3ccccn3)nn2C)cn1 (stereo not given) | 25% | – |
| – | C[C@@H](c1ccc(C(F)(F)F)cc1C(F)(F)F)n1cc(NC(=O)c2cc(-c3ccco3)on2)cn1 | – | CL/F [2]: 267 mL/min/kg |
| – | C[C@H](c1ccc(C(F)(F)F)cc1C(F)(F)F)n1cc(NC(=O)c2cc(-c3cnccn3)on2)cn1 | – | CL/F [2]: 1.56 mL/min/kg |
| – | C[C@H](c1ccc(C(F)(F)F)cc1C(F)(F)F)n1cc(NC(=O)c2cc(-c3ccco3)on2)cn1 | < 25% | – |
| – | C[C@@H](c1ccc(C(F)(F)F)cc1C(F)(F)F)n1cc(NC(=O)c2nnc(-c3ccco3)s2)cn1 | 25% | – |
| in the range around 1000 nM | O=C(Nc1cnn(Cc2ccc(C(F)(F)F)cc2C(F)(F)F)c1)c1cc(-c2ccncc2)on1 | – | – |
| – | C[C@H](c1ccc(C(F)(F)F)cc1C(F)(F)F)n1cc(NC(=O)c2nnc(-c3ccccn3)s2)cn1 | – | CL/F [2]: 2.68 mL/min/kg |
| – | Cc1nn([C@H](C)c2ccc(C(F)(F)F)cc2C(F)(F)F)cc1NC(=O)c1cc(-c2ccccn2)on1 | 25% | – |
